Measurements: patent publication US5238958A, “Substituted α-amino acids having selected acidic moieties for use as excitatory amino acid antagonists in pharmaceuticals” (Warner-Lambert Company, priority 1990, dated 1993)
Where a name gives a salt, the structure may show the parent alone.

target: NMDA receptor; assay: NMDA receptor binding assay using [3H]CPP as antagonist ligand; settings: in vitro, essentially as Murphy et al, J. Pharm. Exp. Ther. 240:778 (1987)
Text: The activity of the compounds of the formula I is shown in vitro in an NMDA receptor binding assay based on the use of [^3 H]CPP as antagonist ligand in a manner essentially as set out by B. E. Murphy, et al, in J. Pharm. Exp. Ther. 240:778 (1987).

IC50, < 100 µM:
NC(C(=O)O)c1ccc(O)c(CC(=O)O)c1 (stereo not drawn) [Example I2, α-Amino-4-hydroxy-1,3-benzenediacetic acid]
NC(C(=O)O)c1ccc(CC(=O)O)cc1 (racemic) [Example I1, 1,4-Benzenediacetic acid, α-amino-, (±)]
NC(C(=O)O)c1ccc(CC(=O)O)c(O)c1 (racemic) [Example I3, 1,4-Benzenediaoetic acid, α-amino-2-hydroxy-,-monohydrochloride, (±)]
